Test results: ChEMBL document CHEMBL1153206, “Evaluation of pyrrolin-2-one derivatives synthesized by a new practical method as inhibitors of plasminogen activator inhibitor-1 (PAI-1)” (Bioorg Med Chem Lett, 2010)

Molecular target: T1, Plasminogen activator inhibitor 1 (Homo sapiens, UniProt P05121)
Assay: Inhibition of human PAI1 at 10 uM

T1 sequence (P05121 whole entry): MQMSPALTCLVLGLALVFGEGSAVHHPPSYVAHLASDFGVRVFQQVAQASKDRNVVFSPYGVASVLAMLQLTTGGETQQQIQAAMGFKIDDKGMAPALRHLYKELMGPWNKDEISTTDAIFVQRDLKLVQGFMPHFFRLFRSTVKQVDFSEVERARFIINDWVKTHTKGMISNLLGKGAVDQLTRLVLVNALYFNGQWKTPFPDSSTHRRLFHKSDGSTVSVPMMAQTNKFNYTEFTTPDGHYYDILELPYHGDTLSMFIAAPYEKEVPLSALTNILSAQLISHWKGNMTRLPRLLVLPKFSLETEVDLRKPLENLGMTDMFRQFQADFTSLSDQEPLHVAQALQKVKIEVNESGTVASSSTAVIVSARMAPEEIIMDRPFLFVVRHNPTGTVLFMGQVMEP

inhibition | Compound
36% | O=C1N/C(=C\c2ccco2)C(c2ccco2)=C1c1ccccc1

Molecular target: T1, Plasminogen activator inhibitor 1
Assay: Inhibition of human PAI1

Compound | IC50
COc1ccc(C2=C(c3ccco3)/C(=C/c3ccc(/C=C/C(=O)O)o3)NC2=O)cc1OC | 1.1 µM
COc1ccc(C2=C(c3ccco3)/C(=C/c3ccncc3)NC2=O)cc1OC | 7.8 µM
O=C(O)COc1cccc(/C=C2\NC(=O)C(c3ccccc3)=C2c2ccccc2)c1 | 9.6 µM
COc1ccccc1C1=C(c2ccccc2)C(=O)N/C1=C\c1ccc(/C=C/C(=O)O)o1 | 0.65 µM

The next lines start with the values.

IC50 | Compound
0.94 µM | COc1ccccc1C1=C(c2ccccc2)C(=O)N/C1=C\c1ccc(C)o1
0.69 µM | COc1ccc(C2=C(c3cccs3)/C(=C/c3ccc(/C=C/C(=O)O)o3)NC2=O)cc1OC
1.2 µM | N#C/C=C/c1ccc(/C=C2\NC(=O)C(c3ccccc3)=C2c2ccco2)o1
1.5 µM | O=C(O)/C=C/c1ccc(/C=C2\NC(=O)C(c3ccccc3)=C2c2ccco2)o1

Molecular target: T1, Plasminogen activator inhibitor 1
Assay: Inhibition of human PAI1 at 15 uM

inhibition | Compound
34% | O=C1N/C(=C\c2ccc(C(=O)O)o2)C(c2ccco2)=C1c1ccccc1
